According to patent EP3046573B1, “AMYLIN ANALOGUES” (Zealand Pharma A/S, priority 2013, dated 2015):
Like-named read-outs stand apart in the source and are kept apart here. Numbered stars: 1 amine (or outer) side, 2 acyl side, 3 side chain; on linkers, the order of the positions; unused ones are H or OH. Bridge positions count the residues as written; N and C are the ends. Square brackets hold non-standard residues; d marks the D form. Peptide text beside a SMILES is read from it. * marks the point of attachment. C20 diacid = O=C(O)CCCCCCCCCCCCCCCCCCC(=O)*; γGlu = O=C(O)[C@H](CCC(=O)[*:2])N[*:1]; NMeI = CC[C@H](C)[C@H](NC)C(=O)O; Sar = CNCC(=O)O

Experiments:
[1] = Solubility assessment (turbidity absorbance at 325 nm); format: physicochemical; settings: stock 2 mg/ml diluted 1:1, ambient temperature (typically 25°C), n=1; for Solubility, Acetate buffer pH 4: 100 mM acetate buffer pH 4.0; for Solubility, Acetate buffer pH 5: 100 mM acetate buffer pH 5.0; for Solubility, Histidine buffer pH 6: 100 mM histidine buffer pH 6.0; for Solubility, Histidine buffer pH 7: 100 mM histidine buffer pH 7.0; for Solubility, Phosphate buffer pH 6: 100 mM phosphate buffer pH 6.0; for Solubility, Phosphate buffer pH 7: 100 mM phosphate buffer pH 7.0; for Solubility, Phosphate buffer pH 7.5: 100 mM phosphate buffer pH7.5
Method in brief: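 Read-out: turbidity as absorbance at 325 nm (280 nm also read), single samples, ambient temperature of typically 25°C. Samples were a 1:1 mix of 2 mg/ml stock (water, pH 2.5) with 100 mM acetate, histidine or phosphate buffers spanning pH 4.0–7.5. Cut-off: A325 ≤ 0.02 indicates ≥ 1 mg/ml.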

[2] = biological target: T1, human calcitonin receptor (hCTR2) (Homo sapiens, UniProt P30988); test: hCTR2 assay: induction of cAMP (AlphaScreen cAMP Assay kit) in COS7 cells expressing hCTR2; format: cell-based
T1 construct: expressed in transfected cells
T1 sequence (P30988 25-474): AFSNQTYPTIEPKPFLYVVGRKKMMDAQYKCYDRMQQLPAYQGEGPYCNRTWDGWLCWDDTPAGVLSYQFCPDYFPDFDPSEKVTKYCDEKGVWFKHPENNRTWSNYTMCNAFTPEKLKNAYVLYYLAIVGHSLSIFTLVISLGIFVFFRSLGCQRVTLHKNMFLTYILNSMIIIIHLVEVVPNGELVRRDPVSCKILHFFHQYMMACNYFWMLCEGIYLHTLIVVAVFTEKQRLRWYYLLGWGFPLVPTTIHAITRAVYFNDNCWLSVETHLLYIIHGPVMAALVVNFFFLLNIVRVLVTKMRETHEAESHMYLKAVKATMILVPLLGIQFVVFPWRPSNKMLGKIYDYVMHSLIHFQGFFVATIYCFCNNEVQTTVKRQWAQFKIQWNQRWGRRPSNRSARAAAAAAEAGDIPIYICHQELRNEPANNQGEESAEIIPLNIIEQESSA
Method in brief: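 cAMP induction was measured by AlphaScreen in COS7 cells stably expressing hCTR2 without RAMPs, after 15 min at 37° C with increasing peptide concentrations, 100 µM IBMX and 0.1% casein (Tyrode, pH 7.4). A 4-parameter logistic fit gave EC50 and % efficacy versus pramlintide.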

EC50 ([2]; cAMP induction in COS7 cells expressing hCTR2, average of a minimum of 3 determinations, read-out: hCTR2 EC50) [nM]	Structure (SMILES)	Solubility, Acetate buffer pH 4 [1]	Solubility, Acetate buffer pH 5 [1]	Solubility, Histidine buffer pH 6 [1]	Solubility, Histidine buffer pH 7 [1]	Solubility, Phosphate buffer pH 6 [1]	Solubility, Phosphate buffer pH 7 [1]	Solubility, Phosphate buffer pH 7.5 [1]	EC50 [2] [nM]
	CC[C@H](C)[C@@H](C(=O)N[C@@H](CC(C)C)C(=O)N[C@@H](CO)C(=O)N[C@@H](CO)C(=O)N[C@H](C(=O)N[C@@H](CC(N)=O)C(=O)N[C@H](C(=O)NCC(=O)N[C@@H](CO)C(=O)N[C@@H](CC(N)=O)C(=O)N[C@H](C(=O)N1CCC[C@H]1C(N)=O)[C@@H](C)O)C(C)C)[C@@H](C)O)N(C)C(=O)[C@H](C)NC(=O)CN(C)C(=O)[C@H](Cc1ccccc1)NC(=O)[C@H](CC(N)=O)NC(=O)[C@H](CC(N)=O)NC(=O)[C@H](CO)NC(=O)[C@H](CO)NC(=O)[C@H](CC(C)C)NC(=O)[C@H](Cc1ccccc1)NC(=O)[C@H](CCC(=O)O)NC(=O)[C@H](C)NC(=O)[C@H](CC(C)C)NC(=O)[C@H](CCCNC(=N)N)NC(=O)[C@H](CCC(N)=O)NC(=O)[C@@H](NC(=O)[C@H](C)NC(=O)[C@@H]1CSSC[C@H](NC(=O)[C@H](CCCNC(=N)N)NC(=O)CC[C@H](NC(=O)CCCCCCCCCCCCCCCCCCC(=O)O)C(=O)O)C(=O)N[C@@H](CC(N)=O)C(=O)N[C@@H]([C@@H](C)O)C(=O)N[C@@H](C)C(=O)N[C@@H]([C@@H](C)O)C(=O)N1)[C@@H](C)O [Compound 41, [19CD]-isoGlu-RC()NTATC()ATQRLAEFLSSNNF-Gly(Me)-A-Ile(Me)-LSSTNVGSNTP-NH2] ({C20 diacid-γGlu}-RCNTATCATQRLAEFLSSNNF[Sar]A[NMeI]LSSTNVGSNTP-NH2; disulfide 2-7)	SS (SS indicates solubility ≥ 1mg/ml)	SS (SS indicates solubility ≥ 1mg/ml)	SS (SS indicates solubility ≥ 1mg/ml)	SS (SS indicates solubility ≥ 1mg/ml)	SS (SS indicates solubility ≥ 1mg/ml)	SS (SS indicates solubility ≥ 1mg/ml)	SS (SS indicates solubility ≥ 1mg/ml)	0.071
0.12	CC[C@H](C)[C@@H](C(=O)N[C@@H](CC(C)C)C(=O)N[C@@H](CO)C(=O)N[C@@H](CO)C(=O)N[C@H](C(=O)N[C@@H](CC(N)=O)C(=O)N[C@H](C(=O)NCC(=O)N[C@@H](CO)C(=O)N[C@@H](CC(N)=O)C(=O)N[C@H](C(=O)N1CCC[C@H]1C(N)=O)[C@@H](C)O)C(C)C)[C@@H](C)O)N(C)C(=O)CN(C)C(=O)[C@H](Cc1ccccc1)NC(=O)[C@H](CC(N)=O)NC(=O)[C@H](CC(N)=O)NC(=O)[C@H](CO)NC(=O)[C@H](CO)NC(=O)[C@H](CC(C)C)NC(=O)[C@H](Cc1ccccc1)NC(=O)[C@H](CCC(=O)O)NC(=O)[C@H](C)NC(=O)[C@H](CC(C)C)NC(=O)[C@H](CCCNC(=N)N)NC(=O)[C@H](CCC(N)=O)NC(=O)[C@@H](NC(=O)[C@H](C)NC(=O)[C@@H]1CSSC[C@H](NC(=O)[C@H](CCCNC(=N)N)NC(=O)CC[C@H](NC(=O)CCCCCCCCCCCCCCCCCCC(=O)O)C(=O)O)C(=O)N[C@@H](CC(N)=O)C(=O)N[C@@H]([C@@H](C)O)C(=O)N[C@@H](C)C(=O)N[C@@H]([C@@H](C)O)C(=O)N1)[C@@H](C)O [Compound 42, [19CD]-isoGlu-RC()NTATC()ATQRLAEFLSSNNF-Gly(Me)-Ile(Me)-LSSTNVGSNTP-NH2] ({C20 diacid-γGlu}-RCNTATCATQRLAEFLSSNNF[Sar][NMeI]LSSTNVGSNTP-NH2; disulfide 2-7)	SS (SS indicates solubility ≥ 1mg/ml)	SS (SS indicates solubility ≥ 1mg/ml)	SS (SS indicates solubility ≥ 1mg/ml)	SS (SS indicates solubility ≥ 1mg/ml)	SS (SS indicates solubility ≥ 1mg/ml)	SS (SS indicates solubility ≥ 1mg/ml)	SS (SS indicates solubility ≥ 1mg/ml)	
